Test results as given in article PMC8794255, “Small molecule inhibitor of Igf2bp1 represses Kras and a pro-oncogenic phenotype in cancer cells” (RNA Biology, 2021).

What was measured:
[1] = molecular target: T1, Igf2bp2 (Homo sapiens, UniProt Q9Y6M1); assay: MST, Igf2bp2; type: binding
T1 construct: made in house

[2] = system: LKR-M cells expressing GFP alone; assay: Wound healing assay, LKR-M cells expressing GFP alone; type: cell-based, mouse; details: 20 μM 7773 vs DMSO
Description: (§1) Cells were seeded in 96 IncuCyte® ImageLock plates (20X10^3 cells per well) for 24 hours, to a near confluency of 95%, before the addition of increasing concentrations of compound. After a further 24 hours, wells were scratched using the IncuCyte® 96-well WoundMaker Tool, and the cells cultured for an additional 48 hours using the IncuCyte® S3 Live-Cell Analysis System (Essen BioScience). The plate was imaged at increments of 120 minutes for a period of 48 hours, and then analysed for relative wound healing.

[3] = system: ES2 cells; assay: Wound healing (cell migration) assay, ES2; type: cell-based, human
Description: as §1

[4] = molecular target: T2, La (Homo sapiens, UniProt P05455); assay: FP counterscreen: La binding to Bcl2 RNA
T2 sequence (P05455 1-408): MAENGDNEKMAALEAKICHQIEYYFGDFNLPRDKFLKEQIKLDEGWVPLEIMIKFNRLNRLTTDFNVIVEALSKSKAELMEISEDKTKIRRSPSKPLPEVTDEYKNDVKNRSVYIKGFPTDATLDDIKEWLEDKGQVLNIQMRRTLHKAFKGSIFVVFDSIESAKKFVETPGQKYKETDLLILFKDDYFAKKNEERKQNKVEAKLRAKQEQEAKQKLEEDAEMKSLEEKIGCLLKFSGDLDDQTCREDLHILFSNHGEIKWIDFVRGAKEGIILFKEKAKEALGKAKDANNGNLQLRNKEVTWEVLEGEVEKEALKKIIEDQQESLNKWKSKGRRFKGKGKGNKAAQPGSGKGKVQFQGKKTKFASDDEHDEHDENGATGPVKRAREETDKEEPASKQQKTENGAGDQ

[5] = system: ES2 cells; assay: qPCR of Igf2bp1 target RNAs in ES2 cells; type: cell-based, human
Description: Cells were grown for 12 hours in 12 well plates prior to incubation with the compound at different concentrations for an additional 12 or 24 hours. Total RNA was then extracted using EZ-RNA total RNA isolation kit (Biological Industries) and cDNA prepared from the RNA using the First Strand cDNA Synthesis kit (Quanta bio). Real time PCR was performed with Fast SYBR Green Master Mix (Thermo Fisher Scientific), and cDNA expression analysed with the Bio-Rad CFX Manager 3.1.

[6] = molecular target: T3, Igf2bp3 (Homo sapiens, UniProt O00425); assay: MST, Igf2bp3; details: IGF2BP3 50nM, read-out: KD of binding to Igf2bp3
T3 construct: made in house
T3 sequence (O00425 whole entry, species assumed): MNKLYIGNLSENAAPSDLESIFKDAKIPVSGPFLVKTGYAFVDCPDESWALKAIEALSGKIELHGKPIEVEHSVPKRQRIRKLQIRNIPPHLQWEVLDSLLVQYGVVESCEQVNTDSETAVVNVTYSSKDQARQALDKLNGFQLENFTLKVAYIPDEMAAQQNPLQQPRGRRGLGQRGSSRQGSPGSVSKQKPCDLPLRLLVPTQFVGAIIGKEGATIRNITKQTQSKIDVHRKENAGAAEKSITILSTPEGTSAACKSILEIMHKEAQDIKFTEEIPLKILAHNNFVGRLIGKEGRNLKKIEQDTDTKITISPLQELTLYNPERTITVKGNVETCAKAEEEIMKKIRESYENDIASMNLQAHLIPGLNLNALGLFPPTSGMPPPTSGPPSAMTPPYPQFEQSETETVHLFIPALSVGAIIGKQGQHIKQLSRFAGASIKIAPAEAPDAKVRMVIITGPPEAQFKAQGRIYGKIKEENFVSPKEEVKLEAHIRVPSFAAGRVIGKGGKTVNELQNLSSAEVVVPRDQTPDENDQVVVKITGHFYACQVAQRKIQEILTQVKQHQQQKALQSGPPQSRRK

[7] = system: Igf2bp1-luciferase reporter fusions in RKO cells; assay: Split-luciferase assay (Igf2bp1 dimerization) in RKO cells; type: cell-based; details: 50 μM 7773
Description: Vectors expressing different fragments of split luciferase reporters with flexible linker were procured from Addgene (catalogue # 58786, 58787, 58788 and 58789). The vectors were digested with EcoRI and XhoI. EcoRI and XhoI restriction enzyme sites were added to 5′ and 3′ ends of the coding region of IGF2BP1, respectively, using PCR. We constructed four split luciferase reporter vectors by cloning IGF2BP1 in different orientations with the luciferase fragments . Primers used for the amplification of IGF2BP1 were: […]
The RKO cells were seeded in DMEM with 10% calf serum 24 hrs prior to the transfection. Transfection was done using Lipofectamine 2000 with reporter plasmids and Renilla-luciferase expressing vector (as internal control). After 24 hrs, cells were lysed using passive lysis buffer (Promega catalogue # E1941). The lysates were cleared by centrifugation and its 20 μL volume was mixed with 100 μL of luciferase substrate solution for luminescence recording which was followed by addition of 100 μL of Stop-glo solution (Promega catalogue # E1910) with an additional luminescence reading. Both readings were detected by using GloMax 20/20 Luminometer (Promega), and the final value for each sample was the ratio of their two respective readings. […]

[8] = system: H1299 cells; assay: Wound healing (cell migration) assay, H1299; type: cell-based, human
Description: as §1

[9] = system: HEK293 cells; assay: Cell proliferation assay (Incucyte), HEK293; type: cell-based, human; details: HEK293, up to 20 μM
Description: ES2, H1299 and HEK293 cells were seeded in a 96 well plate (5X10^3 cells per well) for 24 hours before adding the compound at increasing concentrations. After an additional 24 hours, the plate was incubated in an IncuCyte® S3 Live-Cell Analysis System (Essen BioScience). The wells were filmed for 72 hours, and then analysed for proliferation rate Using IncuCyte® S3 Live-Cell Analysis System (Essen BioScience)

[10] = molecular target: T4, Igf2bp1 (Homo sapiens, UniProt Q9NZI8); assay: Microscale thermophoresis (MST), full-length Igf2bp1; details: full-length protein, read-out: KD of compound binding to Igf2bp1
T4 construct: Recombinant full-length Igf2bp1 protein was labelled with RED-tris-NTA dye; made in house
T4 sequence (Q9NZI8 whole entry): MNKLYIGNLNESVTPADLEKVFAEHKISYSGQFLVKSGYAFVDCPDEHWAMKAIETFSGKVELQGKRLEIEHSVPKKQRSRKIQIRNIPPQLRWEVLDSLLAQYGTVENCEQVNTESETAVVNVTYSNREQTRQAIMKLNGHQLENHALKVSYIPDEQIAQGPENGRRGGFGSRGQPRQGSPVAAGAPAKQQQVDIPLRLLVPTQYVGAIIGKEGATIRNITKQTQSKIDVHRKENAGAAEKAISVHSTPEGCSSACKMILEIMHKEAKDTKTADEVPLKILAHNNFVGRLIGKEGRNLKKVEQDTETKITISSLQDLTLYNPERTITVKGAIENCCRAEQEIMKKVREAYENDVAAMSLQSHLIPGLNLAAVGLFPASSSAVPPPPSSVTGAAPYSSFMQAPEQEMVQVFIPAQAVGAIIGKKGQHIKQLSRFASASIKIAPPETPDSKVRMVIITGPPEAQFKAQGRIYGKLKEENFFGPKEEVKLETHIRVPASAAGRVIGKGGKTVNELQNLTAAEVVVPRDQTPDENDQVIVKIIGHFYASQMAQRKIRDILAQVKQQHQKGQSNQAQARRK
Description: Recombinant full-length Igf2bp1 protein was labelled with RED-tris-NTA dye using a Monolith NT His-Tag Labelling Kit (NanoTemper) while RRM12, KH12 and KH34 di-domain peptides were labelled using the Protein Labelling Kit RED NHS 2nd generation (NanoTemper). Labelled proteins were spun at 15,000 g for 5 min to eliminate aggregates. All samples were 2X labelled protein mix of Igf2bp1 (200 nM) in PBST and were combined (1:1) with serial dilutions of compound or Kras6 RNA in binding buffer (10mMTris pH = 7.5, 100 mM NaCl, 0.1 mM EDTA, 0.06% IPEGAL, 0.02 μg/μL tRNA, 2 mM DTT, 0.1 μg/μL heparin) in final volume of 20 μL, room temperature for 15 min. Samples were then loaded into standard capillaries (NanoTemper) and read in the Monolith NT.115 scanner (NanoTemper) using the red filter with reading conditions of 95% LED power and 40% MST power, 5 sec fluorescence before, 30 sec MST on, 5 sec fluorescence after and 25 sec delay between samples. Results were analysed using the MO Control software (NanoTemper) for curve fitting to KD.

T1 sequence (Q9Y6M1 whole entry, species assumed): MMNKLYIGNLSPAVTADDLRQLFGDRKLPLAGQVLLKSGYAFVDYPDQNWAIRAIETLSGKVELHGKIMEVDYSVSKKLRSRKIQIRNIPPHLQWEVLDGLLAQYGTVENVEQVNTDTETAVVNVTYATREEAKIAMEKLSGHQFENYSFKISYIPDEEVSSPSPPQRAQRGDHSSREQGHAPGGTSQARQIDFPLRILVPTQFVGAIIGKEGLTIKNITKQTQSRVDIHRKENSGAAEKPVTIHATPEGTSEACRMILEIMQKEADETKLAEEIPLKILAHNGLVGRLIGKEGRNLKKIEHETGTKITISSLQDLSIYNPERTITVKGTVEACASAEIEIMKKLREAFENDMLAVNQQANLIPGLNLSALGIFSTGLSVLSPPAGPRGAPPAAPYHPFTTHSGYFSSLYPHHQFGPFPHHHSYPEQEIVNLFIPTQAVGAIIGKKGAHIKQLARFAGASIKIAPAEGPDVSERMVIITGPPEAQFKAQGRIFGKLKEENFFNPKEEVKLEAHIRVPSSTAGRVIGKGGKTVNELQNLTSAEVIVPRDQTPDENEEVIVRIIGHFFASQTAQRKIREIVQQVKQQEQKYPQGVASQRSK

Kd ([1]; IGF2BP2 50nM, read-out: KD of binding to Igf2bp2): > 150 µM
Binding to Igf2bp2 ([1]; even at concentrations that almost saturate binding to Igf2bp1): did not significantly bind
Effect on control RBP (La) binding to its target (Bcl2 RNA) [4]: almost no effect
IC50 ([4]; control RNA binding protein, read-out: IC50, inhibition of La binding to Bcl2 RNA): > 100 µM
Kd [6]: 52 µM
Kd [10]: 17 µM
SMILES: O=C(c1ccc(Cn2cnnn2)cc1)N1CCCC(Nc2ccc3c(c2)OCO3)C1 (centres unmarked) [compound 7773]
Effect on migration of cells expressing GFP alone [2]: unaffected
Wound healing ([3]; ES2, 20 μM): strongly inhibited
Wound healing ([3]; ES2, lowest concentration 5 μM): discernible inhibition
Steady state level of CD44 RNA ([5]; ES2, 20 μM 7773, 12 and 24 hours): strongly reduced after 12 hours, but appeared to recover after 24 hours
Steady state levels of CD44, Kras, cMyc and SRF RNA ([5]; ES2, 20 μM 7773, 12 hours): all of the assayed RNAs were reduced
Steady state levels of CD44, Kras, cMyc and SRF RNA ([5]; ES2, 20 μM 7773, 24 hours): 3 of the 4 RNAs showing similar or even enhanced reduction
Levels of control RNAs that are not targets of Igf2bp1 ([5]; ES2, 24 hours): not significantly affected
Effect on split-luciferase luminescence [7]: significantly reduced luminescence
Wound healing ([8]; H1299, 20 μM): strongly inhibited
Wound healing ([8]; H1299, lowest concentration 5 μM): discernible inhibition
Cell proliferation [9]: remarkably unaffected
